Laboratory results: publication PMC11053168, “Agonist-selective activation of individual G-proteins by muscarinic receptors” (Scientific Reports, 2024)
Read-outs that look alike come from different tables or passages of the source. One block for each molecule: values may come before it.

Key:
M1 muscarinic receptor = molecular target: T1, M1 muscarinic receptor (Homo sapiens, UniProt P11229); experiment: [3H]NMS competition binding, membranes from CHO cells expressing M1; settings: competition with [3H]NMS, mean ± SD, three experiments, read-out: Binding affinity, negative logarithm of Ki (converted)
T1 construct: membranes
T1 sequence (P11229 1-460): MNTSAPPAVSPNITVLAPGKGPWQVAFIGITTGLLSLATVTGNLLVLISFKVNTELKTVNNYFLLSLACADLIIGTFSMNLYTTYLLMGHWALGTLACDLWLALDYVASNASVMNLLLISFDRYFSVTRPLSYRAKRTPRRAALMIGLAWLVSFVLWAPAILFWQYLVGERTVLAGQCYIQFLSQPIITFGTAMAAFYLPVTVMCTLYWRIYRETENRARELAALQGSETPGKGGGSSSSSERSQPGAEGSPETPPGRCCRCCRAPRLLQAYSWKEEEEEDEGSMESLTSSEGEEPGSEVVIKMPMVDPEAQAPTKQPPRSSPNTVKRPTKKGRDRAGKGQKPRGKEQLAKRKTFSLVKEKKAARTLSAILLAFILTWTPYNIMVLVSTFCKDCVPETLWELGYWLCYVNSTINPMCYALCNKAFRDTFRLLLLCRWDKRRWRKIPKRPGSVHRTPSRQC
Method: (§1) Cells were cultured as described previously by Randakova et al.[33]. […] The medium was supplemented with 5 mM butyrate for the last 24 h of culture to increase receptor expression. Cells were washed with (phosphate-buffered saline (PBS), mechanically harvested by scraper and centrifugated 1000 × g for 5 min. Cell pellets were kept at − 80 °C.
(§2) Membranes were prepared as described previously by Randakova et al.[33]. Cells harvested from twenty 100 mm petri dishes (CHO) or 30 ml of cell suspension (Sf9) were suspended in 20 ml of ice-cold incubation medium (100 mM NaCl, 20 mM Na-HEPES, 10 mM MgCl2, pH 7.4) supplemented with 10 mM EDTA and homogenized on ice by two 30‐s strokes using a Polytron homogenizer (Ultra-Turrax; Janke & Kunkel GmbH & Co. KG, IKA-Labortechnik, Staufen, Germany) with a 30 s pause between strokes. Cell homogenates were centrifuged for 5 min at 1000×g to remove whole cells and cell nuclei. The resulting supernatants were centrifuged for 30 min at 30,000×g. Pellets were suspended in a fresh incubation medium, incubated on ice for 30 min, and centrifuged again. The resulting membrane pellets were kept at − 80 °C until assayed within 10 weeks.
(§3) Non-specific binding was determined in the presence of 10 μM unlabelled atropine. Incubations were terminated by filtration through filtration plates multiscreen 96 well Harvest (Merck Millipore) using a Brandel cell harvester (Brandel, Gaithersburg, MD, USA). Filtration plates were dried in a microwave oven, and then 40 μl of liquid scintillator Rotiscint eco plus (Roth) was added. The filtration plates were counted in the Microbeta scintillation counter (PerkinElmer). […] The inhibition constant KI was calculated according to Eq. (2).
(§4) Inhibition constants KI were calculated according to Eq. (2).2 KI=IC50/1+D/KD where IC50 is calculated according to Eq.

M2 muscarinic receptor = molecular target: T2, M2 muscarinic receptor (Homo sapiens, UniProt P08172); experiment: [3H]NMS competition binding, membranes from CHO cells expressing M2
T2 construct: membranes
T2 sequence (P08172 1-466): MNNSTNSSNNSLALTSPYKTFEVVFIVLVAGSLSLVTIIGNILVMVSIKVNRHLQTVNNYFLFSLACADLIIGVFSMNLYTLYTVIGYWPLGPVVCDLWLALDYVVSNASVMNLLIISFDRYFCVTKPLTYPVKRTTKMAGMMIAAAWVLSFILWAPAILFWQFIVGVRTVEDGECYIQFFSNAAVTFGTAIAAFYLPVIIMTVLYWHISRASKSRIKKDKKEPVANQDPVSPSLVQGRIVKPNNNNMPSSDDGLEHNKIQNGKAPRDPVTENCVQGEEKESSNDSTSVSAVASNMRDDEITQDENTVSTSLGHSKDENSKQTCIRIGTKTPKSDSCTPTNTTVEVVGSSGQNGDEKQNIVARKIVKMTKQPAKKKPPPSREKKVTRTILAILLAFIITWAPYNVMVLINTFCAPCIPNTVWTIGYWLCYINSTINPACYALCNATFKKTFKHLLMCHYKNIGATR
Method: as §1, §2, §3, §4

M3 muscarinic receptor = molecular target: T3, M3 muscarinic receptor (Homo sapiens, UniProt P20309); experiment: [3H]NMS competition binding, membranes from CHO cells expressing M3; settings: competition with [3H]NMS, mean ± SD, three experiments, read-out: Binding affinity, negative logarithm of Ki (converted)
T3 construct: membranes
Method: as §1, §2, §3, §4

M4 muscarinic receptor = molecular target: T4, M4 muscarinic receptor (Homo sapiens, UniProt P08173); experiment: [3H]NMS competition binding, membranes from CHO cells expressing M4
T4 construct: membranes
T4 sequence (P08173 1-479): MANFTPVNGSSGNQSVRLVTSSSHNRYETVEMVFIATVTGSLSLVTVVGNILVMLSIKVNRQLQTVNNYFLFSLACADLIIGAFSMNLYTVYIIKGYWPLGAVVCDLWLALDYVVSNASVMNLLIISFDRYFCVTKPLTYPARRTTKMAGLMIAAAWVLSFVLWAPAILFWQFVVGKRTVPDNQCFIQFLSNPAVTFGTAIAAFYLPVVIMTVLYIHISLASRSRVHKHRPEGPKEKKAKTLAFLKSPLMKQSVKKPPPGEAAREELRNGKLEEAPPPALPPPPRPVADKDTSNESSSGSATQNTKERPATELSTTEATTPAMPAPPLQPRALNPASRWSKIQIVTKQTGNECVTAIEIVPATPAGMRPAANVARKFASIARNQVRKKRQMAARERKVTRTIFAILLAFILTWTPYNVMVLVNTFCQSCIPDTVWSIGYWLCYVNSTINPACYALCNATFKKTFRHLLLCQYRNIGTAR
Method: as §1, §2, §3, §4

M5 muscarinic receptor = molecular target: T5, M5 muscarinic receptor (Homo sapiens, UniProt P08912); experiment: [3H]NMS competition binding, membranes from CHO cells expressing M5
T5 construct: membranes
T5 sequence (P08912 1-532): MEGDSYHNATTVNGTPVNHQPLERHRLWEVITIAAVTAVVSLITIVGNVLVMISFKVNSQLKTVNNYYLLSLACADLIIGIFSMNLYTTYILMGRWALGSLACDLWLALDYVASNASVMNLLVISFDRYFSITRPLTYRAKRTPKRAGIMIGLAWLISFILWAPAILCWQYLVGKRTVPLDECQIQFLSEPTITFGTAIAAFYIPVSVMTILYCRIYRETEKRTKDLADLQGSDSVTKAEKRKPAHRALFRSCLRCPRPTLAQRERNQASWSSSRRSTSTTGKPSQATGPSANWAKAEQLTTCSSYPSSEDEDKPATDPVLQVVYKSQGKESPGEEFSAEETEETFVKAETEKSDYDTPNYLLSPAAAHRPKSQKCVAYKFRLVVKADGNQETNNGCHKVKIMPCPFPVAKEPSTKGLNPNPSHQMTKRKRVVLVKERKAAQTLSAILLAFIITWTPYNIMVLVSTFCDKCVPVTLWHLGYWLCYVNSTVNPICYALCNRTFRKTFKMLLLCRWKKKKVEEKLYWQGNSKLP
Method: as §1, §2, §3, §4

M2 receptor = molecular target: T6, M2 receptor (Homo sapiens, UniProt P08172); experiment: Agonist-stimulated GTPγ[35S] binding to Sf9 membranes expressing M2 receptor and individual Gαi/o; type: biochemical; design: host or cells: Sf9 insect cells, baculovirus (pFastBac1 / Bac-to-Bac); membranes; settings: for Activation of individual Gi/o Gα types: M2 with GαoA, GαoB, Gαi1, Gαi2, Gαi3
T6 sequence (P08172 1-466): T2 sequence (P08172 1-466)
Method: Baculoviral stocks for expression of M2 receptor and individual Gα-subunits of Gi/o G-proteins (GαoA, GαoB, Gαi1, Gαi2, Gαi3) in SF9 cells were generated according to Bac-to-Bac® baculovirus expression system—user guide (https://assets.thermofisher.com/TFS-Assets/LSG/manuals/MAN0000414_BactoBacExpressionSystem_UG.pdf). […] After 96 h at 27 °C, baculoviral viral particles released into the medium were harvested. After centrifugation at 500×g for 10 min to remove detached cells and cell debris, baculoviral stock P0 was ready for amplification. Suspension of Sf9 cells at density 2 × 10^6 cells per ml was infected by baculoviral stock P0 in ratio 1:1000 and after 72 h of growth (in a shaking incubator at 135 rpm and 27 °C) the amplified baculoviral stock P1 was harvested. The cell suspension was centrifugated at 500×g for 10 min to remove cells and cell debris and the supernatant containing a high level of baculoviral particles P1 was collected. FBS to the concentration of 0.5% was added and the stock was stored at 4 °C, protected from light for up to 6 months. For the quantification of baculoviral particles, a plaque assay was used.
Cells were grown in suspension culture in 250 ml Erlenmeyer flasks in Sf-900™ III serum-free medium in an aerated shaking incubator at 27 °C and 135 rpm. Cells were maintained at the density of 1–4 × 10^6 cells per ml. Sf9 cells at the density 2 × 10^6 were co-infected with baculoviral stock for the M2 receptor and a particular Gi/o Gα in the ratio (1:10). […] Infected cells were harvested by centrifugation 1000×g for 10 min. Cell pellets were kept at − 80 °C.
as §2
Agonist stimulated GTPγ[^35S]binding to membranes from Sf9 cells expressing the M2 receptors in a combination with α-subunit of given Gi/o type (GαoA, GαoB, Gαi1, Gαi2, Gαi3) was measured in 96-well plates in a final volume of 200 µl of incubation medium described above containing 500 pM of GTPγ[^35S] […] Nonspecific binding was determined in the presence of 1 µM nonlabelled GTPγS. Incubations were terminated and processed as described above. Parameters of functional response were calculated according to Eq. (3) after subtraction of non-specific binding.
The basal value of GTPγ[^35S] binding was determined in the absence of the agonist. After subtraction of non-specific binding determined in the presence of 10 μM nonlabelled GTPγS, GTPγ[^35S]binding was divided by the basal value and expressed as folds over basal. […] Then Eq. (3) was fitted to the data using GraphPad. Obtained EMAX and EC50 values were used to calculate RAi values using Eq. (7). To determine τ and KA of the functional responses system EMAX was determined as described earlier. Basal values were subtracted and functional responses were expressed as fractions of system EMAX. […] Obtained τ and KA values were used to calculate the bias factor according to Eq. (8), see below, for each experiment.
Equation (4) was fitted to data by the two-step procedure described earlier[61]

T3 sequence (P20309 whole entry): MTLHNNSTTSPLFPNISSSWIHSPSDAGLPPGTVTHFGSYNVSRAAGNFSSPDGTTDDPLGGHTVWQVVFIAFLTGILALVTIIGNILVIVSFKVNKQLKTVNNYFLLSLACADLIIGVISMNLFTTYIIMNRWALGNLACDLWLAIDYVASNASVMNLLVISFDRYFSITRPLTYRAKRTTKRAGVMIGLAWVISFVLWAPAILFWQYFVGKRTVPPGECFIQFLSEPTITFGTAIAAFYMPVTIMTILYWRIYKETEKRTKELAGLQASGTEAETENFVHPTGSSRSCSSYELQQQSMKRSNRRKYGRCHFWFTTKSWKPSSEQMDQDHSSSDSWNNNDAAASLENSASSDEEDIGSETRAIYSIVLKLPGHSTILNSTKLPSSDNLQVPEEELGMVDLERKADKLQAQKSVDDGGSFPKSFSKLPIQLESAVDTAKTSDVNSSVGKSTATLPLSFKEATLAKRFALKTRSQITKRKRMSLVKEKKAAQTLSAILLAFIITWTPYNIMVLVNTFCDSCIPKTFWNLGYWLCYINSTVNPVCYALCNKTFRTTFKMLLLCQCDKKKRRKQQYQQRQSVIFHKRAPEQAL

- Ki (M1 muscarinic receptor): > 1000 µM
- Ki (M2 muscarinic receptor; M2, competition with [3H]NMS, mean ± SD, three experiments, read-out: Binding affinity, negative logarithm of Ki (converted)): 302 µM
- Ki (M3 muscarinic receptor): > 1000 µM
- Ki (M4 muscarinic receptor; M4, competition with [3H]NMS, mean ± SD, three experiments, read-out: Binding affinity, negative logarithm of Ki (converted)): > 1000 µM
- Ki (M5 muscarinic receptor; M5, competition with [3H]NMS, mean ± SD, three experiments, read-out: Binding affinity, negative logarithm of Ki (converted)): > 1000 µM
Structure (SMILES): c1csc(CN2CCOCC2)c1 [JB-12-1]

Structure (SMILES): COC(=O)C1=CCC[N+](C)(Cc2cccs2)C1 (centres unmarked) [JB-13-2]
- Ki (M1 muscarinic receptor): 42.7 µM
- Ki (M2 muscarinic receptor): 9.55 µM
- Ki (M3 muscarinic receptor): 126 µM
- Ki (M4 muscarinic receptor): 22.9 µM
- Ki (M5 muscarinic receptor): 97.7 µM

Structure (SMILES): C[N+](C)(C)CC#CCOC(=O)Nc1cccc(Cl)c1.[Cl-] [Mc-Neil A343, reference compound]
- Bias according to RAi, Gαi2 vs GαoB (M2 receptor; M2, relative to carbachol): 2.3 ×
- Activation of individual Gi/o Gα types (M2 receptor): activated all Gi/o Gα

Structure (SMILES): Clc1ccc2c(c1)N=C(N1CCNCC1)c1ccccc1N2 [NDMC, reference compound]
- Activation of individual Gi/o Gα types (M2 receptor): activated all Gi/o Gα

Structure (SMILES): C[N+](C)(C)CC#CCOC1=NOCC1 [iperoxo, reference compound]
- Bias according to RAi, Gαi3 vs GαoA (M2 receptor; M2, relative to carbachol): 2.5 times
- Activation of individual Gi/o Gα types (M2 receptor): activated all Gi/o Gα

Structure (SMILES): O=C1CCCN1CC#CCN1CCCC1 [oxotremorine, reference compound]
- Bias according to RAi, Gαi2 vs Gαi3 (M2 receptor; M2, relative to carbachol): 2 ×
- Activation of individual Gi/o Gα types (M2 receptor): activated all Gi/o Gα
